Consider seven molecules from publication PMC12153776, “Synthesis and Preliminary Cytotoxicity Evaluation of 3-Lup-20(29)-Ene-3β,28-Diol Glycoconjugates Containing a Succinic Linker and a 1,2,3-Triazole Ring” (Cancers, 2025).

A value given as a limit tells only on which side of the number the result lay.

Assay [1] has as its system HCT 116 (colorectal carcinoma cell line). In words: cells. Format: cell-based, human. The note with it: for IC50: Homo sapiens, MTT. The method, then: (§1) For biological studies three different cell lines were used: the NHDF-Neo cell line (Lonza, Poland), the HCT-116 cell line (American Type Culture Collection, ATCC, Manassas, VA, USA), and the MCF-7 cell line (purchased by the Maria Sklodowska-Curie Memorial Cancer Center and Institute of Oncology, Gliwice, Poland and gifted for our research). Cells were cultured in 96-well plates (Sarstedt, Nümbrecht, Germany) using RPMI 1640 or DMEM/F12 media (100 µL per well) supplemented with fetal bovine serum (FBS, EURx, Gdańsk, Poland), and with Antibiotic–Antimycotic Solution (Avantor, Gliwice, Poland). […] Stock solutions of the tested compounds were prepared in DMSO and stored under appropriate conditions. Immediately prior to the experiment, these solutions were diluted to the desired concentrations using a growth medium. In no dilution was the DMSO content higher than 1% v/v. The resulting solutions were then used to treat cells (100 µL per well). […] In parallel, the influence of copper ions on cellular proliferation was investigated. In this case, the procedure was analogous to the previously described one, with the difference that glycoconjugates were added in the culture medium with the addition of CuCl2. […] ACROS Organics) was applied following the manufacturer’s protocol. Absorbance of the formazan, formed during the test and dissolved in 100 µL of DMSO, was measured spectrophotometrically at 570 nm using a plate reader (Epoch, Bio-Tek, Winooski, VT, USA). The measured absorbance was analyzed to assess proliferation, where tested samples were compared with the untreated controls (100%). The results from MTT were presented as the mean of three experiments (biological replicates). For each experimental condition within a replicate, four technical repetitions were performed. Technical repetitions were averaged to obtain a single value per replicate. Statistical analyses were conducted using means of the biological replicates. The percentage of viable cells and the standard deviation (SD) were calculated in Excel (Microsoft Office 365, A3 for faculty), using the STDEV.S formula, which determines the standard deviation for a sample set. […] The results are expressed as the average value ± standard deviation (SD). To evaluate statistical significance, two-way analysis of variance (ANOVA) with replication was performed to assess the effects of compound type and concentration on cell proliferation. […] All statistical tests were performed in Excel. […] Two cancer cell lines were chosen for the study: HCT 116 (colorectal carcinoma cell line) and MCF-7 (human breast adenocarcinoma cell line). This selection was not random, as in both types of cancer cell lines overexpression of glucose and galactose transporters is observed. To determine if glycoconjugation enhanced the selectivity of the betulin derivatives, cytotoxicity tests on Normal Human Dermal Fibroblast-Neonatal cells (NHDF-Neo) were also conducted. […] The incubation time for individual cell lines varied from 24 to 72 h, due to differences in the doubling time of these cell lines.

Assay [2] concerns Normal Human Dermal Fibroblast-Neonatal cells (NHDF-Neo). In words: MTT cytotoxicity assay, healthy NHDF-Neo cells. Format: cell-based. As to conditions: 24 h, incubation 24 h. The method, then: as §1
(In general: Tetrazolium assays rely on reduction of a dye to a coloured formazan, in cell work by metabolically active cells.)

Assay [3] deals with MCF-7 (human breast adenocarcinoma cell line). The assay is described as follows: MTT cytotoxicity assay, MCF-7 cells. Format: cell-based. The note with it: for IC50: Homo sapiens, MCF7, 72 h, MTT, incubation 72 h. As to the method:
as §1, with “Poland). Cells were seeded and incubated for 24 h prior to treatment:” for “Poland).”, “proliferation. When significant main effects were observed (p < 0.05), pairwise comparisons between betulin (BN) and each analogue at corresponding concentrations were conducted using two-tailed unpaired t-tests.” for “proliferation.”, “conducted. The selection of this healthy cell line, so atypical in relation to the cancer cells tested, was based on the desire to compare the selectivity index determined for the currently obtained glycoconjugates with the results obtained for the betulin derivatives we described earlier and draw preliminary conclusions on structure-selectivity relationships.” for “conducted.”

The mark [4] stands for this setting: HCT-116, 24 h, incubation 24 h, no copper added.
[5] abbreviates: HCT-116, 48 h, incubation 48 h, addition of CuCl2 at 20 µM.
Where [6] appears, read: HCT-116, 48 h, incubation 48 h, no copper added.

`C=C(C)[C@@H]1CC[C@]2(COC(=O)CCC(=O)OCc3cn([C@@H]4O[C@H](COC(C)=O)[C@@H](OC(C)=O)[C@H](OC(C)=O)[C@H]4OC(C)=O)nn3)CC[C@]3(C)C(CCC4[C@@]5(C)CC[C@H](OC(C)=O)C(C)(C)C5CC[C@]43C)C12` (stereo partly shown) [5a]: the IC50 (as a rule, the concentration that inhibits the measured activity by half) in assay [1] (setting [4]) was above 200 µM; in assay [1] (setting [5]) it was above 200 µM; in assay [1] (setting [6]) it was above 200 µM; in assay [2] (addition of CuCl2 at 20 µM), above 200 µM; in assay [2] (no copper added), above 200 µM; in assay [3] (addition of CuCl2 at 20 µM) it was 109 ± 5.85 µM. For the same molecule, 163 ± 7.65 µM corresponded to half-maximal inhibition in assay [3] (no copper added) (IC50). The “SI MCF-7 (ratio of IC50 of NHDF-Neo to IC50 of cancer cells)” value in assay [3] (addition of CuCl2 at 20 µM) is reported as above 1.8; in assay [3] (no copper added), above 1.2.

On to `C=C(C)[C@@H]1CC[C@]2(COC(=O)CCC(=O)OCc3cn([C@@H]4O[C@H](COCc5ccccc5)[C@@H](OCc5ccccc5)[C@H](OCc5ccccc5)[C@H]4OCc4ccccc4)nn3)CC[C@]3(C)C(CCC4[C@@]5(C)CC[C@H](OC(C)=O)C(C)(C)C5CC[C@]43C)C12` (stereo partly shown) [5b], for which the IC50 in assay [1] (setting [4]) was above 200 µM; in assay [1] (setting [6]) it was above 200 µM; in assay [2] (no copper added) it was above 200 µM; in assay [3] (no copper added), 168 ± 11.7 µM. Also, in assay [3] (no copper added), the “SI MCF-7 (ratio of IC50 of NHDF-Neo to IC50 of cancer cells)” value was above 1.2.

With `C=C(C)[C@@H]1CC[C@]2(COC(=O)CCC(=O)OCc3cn([C@@H]4O[C@H](COC(C)=O)[C@@H](OC(C)=O)[C@H](OC(C)=O)[C@H]4OC(C)=O)nn3)CC[C@]3(C)C(CCC4[C@@]5(C)CC[C@H](O)C(C)(C)C5CC[C@]43C)C12` (stereo partly shown) [5c], the IC50 in assay [1] (setting [4]) is above 200 µM; in assay [1] (setting [5]), above 200 µM; in assay [1] (setting [6]), above 200 µM; in assay [2] (addition of CuCl2 at 20 µM), above 200 µM; in assay [2] (no copper added), above 200 µM; in assay [3] (addition of CuCl2 at 20 µM) it was 70.7 ± 5.44 µM. Moreover, half-maximal inhibition in assay [3] (no copper added) (IC50) was put at 128 ± 1.35 µM. The entries for the “SI MCF-7 (ratio of IC50 of NHDF-Neo to IC50 of cancer cells)” value in assay [3] (addition of CuCl2 at 20 µM) and in assay [3] (no copper added) were above 2.8 and above 1.6, respectively.

On to `C=C(C)[C@@H]1CC[C@]2(COC(=O)CCC(=O)OCc3cn([C@@H]4O[C@H](COC(C)=O)[C@H](OC(C)=O)[C@H](OC(C)=O)[C@H]4OC(C)=O)nn3)CC[C@]3(C)C(CCC4[C@@]5(C)CC[C@H](OC(C)=O)C(C)(C)C5CC[C@]43C)C12` (stereo partly shown) [6a], for which the IC50 in assay [1] (setting [4]) was above 200 µM; in assay [1] (setting [5]) it was above 200 µM; in assay [1] (setting [6]) it was above 200 µM; in assay [2] (addition of CuCl2 at 20 µM), above 200 µM; in assay [2] (no copper added), above 200 µM; in assay [3] (addition of CuCl2 at 20 µM) it was 59.8 ± 1.85 µM. Further, inhibition in assay [3] (no copper added) was half-maximal at 123 ± 6.84 µM (IC50). Also, in assay [3] (no copper added), the “SI MCF-7 (ratio of IC50 of NHDF-Neo to IC50 of cancer cells)” value is recorded as above 1.6.

Turning to `C=C(C)[C@@H]1CC[C@]2(COC(=O)CCC(=O)OCc3cn([C@@H]4O[C@H](COCc5ccccc5)[C@H](OCc5ccccc5)[C@H](OCc5ccccc5)[C@H]4OCc4ccccc4)nn3)CC[C@]3(C)C(CCC4[C@@]5(C)CC[C@H](OC(C)=O)C(C)(C)C5CC[C@]43C)C12` (stereo partly shown) [6b], the IC50 in assay [1] (setting [4]) was above 200 µM; in assay [1] (setting [6]), above 200 µM; in assay [2] (no copper added), above 200 µM; in assay [3] (no copper added), 184 ± 7.59 µM. In assay [3] (no copper added), the “SI MCF-7 (ratio of IC50 of NHDF-Neo to IC50 of cancer cells)” value is on record as above 1.1.

Consider `C=C(C)[C@@H]1CC[C@]2(COC(=O)CCC(=O)OCc3cn(CCO[C@@H]4O[C@H](COC(C)=O)[C@@H](OC(C)=O)[C@H](OC(C)=O)[C@H]4OC(C)=O)nn3)CC[C@]3(C)C(CCC4[C@@]5(C)CC[C@H](OC(C)=O)C(C)(C)C5CC[C@]43C)C12` (stereo partly shown) [7a], for which the IC50 in assay [1] (setting [4]) was above 200 µM; in assay [1] (setting [5]), 150 ± 8.01 µM; in assay [1] (setting [6]), above 200 µM; in assay [2] (addition of CuCl2 at 20 µM), above 200 µM; in assay [2] (no copper added), above 200 µM; in assay [3] (addition of CuCl2 at 20 µM), 135 ± 10.2 µM. In assay [3] (no copper added), this molecule came in with an IC50 of 144 ± 4.7 µM. Besides, the “SI HCT 116 (ratio of IC50 of NHDF-Neo to IC50 of cancer cells)” value in assay [1] (addition of CuCl2 at 20 µM) is reported as above 1.3. Further, the “SI MCF-7 (ratio of IC50 of NHDF-Neo to IC50 of cancer cells)” value in assay [3] (addition of CuCl2 at 20 µM) was above 1.5; in assay [3] (no copper added), above 1.4.

Take `COc1cccc2c1C(=O)c1c(O)c3c(c(O)c1C2=O)C[C@@](O)(C(=O)CO)C[C@@H]3O[C@H]1C[C@H](N)[C@H](O)[C@H](C)O1` [Doxorubicin, doxorubicin, reference compound]: the IC50 in assay [1] (setting [4]) is 13.2 ± 0.58 µM; in assay [1] (setting [6]), 1.89 ± 0.19 µM; in assay [3] (no copper added) it was 0.29 ± 0.04 µM.
